Test results published in patent US6875743B1, “Cell adhesion inhibitors” (Biogen, Inc., priority 1996, dated 2005).
Numbered stars: 1 amine (or outer) side, 2 acyl side, 3 side chain; on linkers, the order of the positions; unused ones are H or OH. Square brackets hold non-standard residues; d marks the D form. Peptide text beside a SMILES is read from it. * marks the point of attachment. ξ: configuration not given here. X5 = COc1cc(CC(=O)[*:2])ccc1N[*:1]; X1 = O=C(Cc1ccc(N[*:1])cc1)[*:2]; NH(2-Me-phenyl) = Cc1ccccc1N*; ξTic = O=C(O)C1Cc2ccccc2CN1; Nle = CCCC[CH](N)C(=O)O; PhAc = O=C(Cc1ccccc1)*; CO = O=C([*:1])[*:2]; NHPh = c1ccc(N*)cc1

Target: T1, VLA4 (Homo sapiens, UniProt P05556+P13612)
T1 construct: endogenous in cells; host or cells: Ramos cells
T1 sequence (P13612 34-1032): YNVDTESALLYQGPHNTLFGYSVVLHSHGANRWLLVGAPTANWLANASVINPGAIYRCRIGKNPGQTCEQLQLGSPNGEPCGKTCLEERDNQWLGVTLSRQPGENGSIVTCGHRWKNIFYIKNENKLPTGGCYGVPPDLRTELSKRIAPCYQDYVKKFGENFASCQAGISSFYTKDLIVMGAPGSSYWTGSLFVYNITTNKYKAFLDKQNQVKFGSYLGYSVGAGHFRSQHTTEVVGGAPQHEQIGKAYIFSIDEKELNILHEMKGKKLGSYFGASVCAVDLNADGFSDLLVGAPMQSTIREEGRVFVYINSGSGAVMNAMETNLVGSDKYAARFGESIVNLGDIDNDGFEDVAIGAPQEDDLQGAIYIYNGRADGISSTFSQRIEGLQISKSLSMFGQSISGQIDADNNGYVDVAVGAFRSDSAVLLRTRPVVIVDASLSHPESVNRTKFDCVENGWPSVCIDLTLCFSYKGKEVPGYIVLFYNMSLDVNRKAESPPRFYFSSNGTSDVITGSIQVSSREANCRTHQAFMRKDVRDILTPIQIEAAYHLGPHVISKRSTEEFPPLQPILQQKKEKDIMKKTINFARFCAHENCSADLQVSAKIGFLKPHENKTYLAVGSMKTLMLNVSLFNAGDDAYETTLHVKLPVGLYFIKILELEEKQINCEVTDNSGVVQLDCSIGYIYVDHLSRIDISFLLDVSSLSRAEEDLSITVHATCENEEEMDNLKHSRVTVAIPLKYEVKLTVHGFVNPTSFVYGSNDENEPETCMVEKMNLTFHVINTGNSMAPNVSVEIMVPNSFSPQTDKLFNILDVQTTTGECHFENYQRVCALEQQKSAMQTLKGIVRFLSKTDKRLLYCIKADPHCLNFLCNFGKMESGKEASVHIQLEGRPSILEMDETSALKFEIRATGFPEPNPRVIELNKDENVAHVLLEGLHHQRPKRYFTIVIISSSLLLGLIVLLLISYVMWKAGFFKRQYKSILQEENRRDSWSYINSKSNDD
T1 sequence (P05556 21-798): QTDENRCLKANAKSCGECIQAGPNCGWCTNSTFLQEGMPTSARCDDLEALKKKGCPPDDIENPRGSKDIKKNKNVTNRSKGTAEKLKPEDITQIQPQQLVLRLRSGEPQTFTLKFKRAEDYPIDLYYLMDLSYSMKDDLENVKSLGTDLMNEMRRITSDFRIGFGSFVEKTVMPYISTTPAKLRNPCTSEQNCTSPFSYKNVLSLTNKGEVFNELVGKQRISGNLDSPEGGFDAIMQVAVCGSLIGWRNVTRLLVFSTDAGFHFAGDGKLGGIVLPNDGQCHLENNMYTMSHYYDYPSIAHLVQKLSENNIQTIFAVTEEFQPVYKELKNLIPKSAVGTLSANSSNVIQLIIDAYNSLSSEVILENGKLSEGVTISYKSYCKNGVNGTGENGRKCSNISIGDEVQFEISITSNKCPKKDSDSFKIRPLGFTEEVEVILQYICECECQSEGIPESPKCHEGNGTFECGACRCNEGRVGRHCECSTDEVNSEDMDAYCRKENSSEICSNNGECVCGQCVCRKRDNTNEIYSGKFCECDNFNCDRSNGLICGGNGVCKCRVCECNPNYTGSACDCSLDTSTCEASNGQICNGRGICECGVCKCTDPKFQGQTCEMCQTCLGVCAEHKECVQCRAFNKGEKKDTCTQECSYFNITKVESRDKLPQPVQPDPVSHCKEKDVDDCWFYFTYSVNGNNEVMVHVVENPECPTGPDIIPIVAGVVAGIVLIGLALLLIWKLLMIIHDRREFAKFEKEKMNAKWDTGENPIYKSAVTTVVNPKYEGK
Assay: Inhibition of VLA4-dependent adhesion to BSA-CS1
Assay type: cell-based
Settings: binding of BCECF-labelled Ramos cells to BSA-CS1 coated wells, 2 mM MnCl2; read-out: IC50
Source text: For example, the cell adhesion inhibitory activity of these compounds may be measured by determining the concentration of inhibitor required to block the binding of VLA-4-expressing cells to fibronectin- or CS1-coated plates. In this assay microtiter wells are coated with either fibronectin (containing the CS-1 sequence) or CS-1. If CS-1 is used, it must be conjugated to a carrier protein, such as bovine serum albumin, in order to bind to the wells. Once the wells are coated, varying concentrations of the test compound are then added together with appropriately labelled, VLA-4-expressing cells. Alternatively, the test compound may be added first and allowed to incubate with the coated wells prior to the addition of the cells. The cells are allowed to incubate in the wells for at least 30 minutes. Following incubation, the wells are emptied and washed. Inhibition of binding is measured by quantitating the fluorescence or radioactivity bound to the plate for each of the various concentrations of test compound, as well as for controls containing no test compound.
VLA-4-expressing cells that may be utilized in this assay include Ramos cells, Jurkat cells, A375 melanoma cells, as well as human peripheral blood lymophocytes (PBLs). The cells used in this assay may be fluorescently or radioactively labelled.
This assay was used to assess the potency of VLA4-directed inhibitory compounds of this invention.
We dissolved BSA-SMCC (Pierce Chemical, Rockford, Ill.; Catalog #77115) in H2O at a concentration of 10 mg/mL. [SEQ ID NO:4]: […](“Cys-Tyr-CS1 peptide”), which we synthesized by conventional solid phase chemistry and purified by HPLC, was dissolved in 10 mM HEPES pH 5, 50 mM NaCl and 0.1 mM EDTA also at a concentration of 10 mg/mL. We then mixed 500 μL of BSA-SMCC, 250 μL of Cys-Tyr-CS1 peptide and 75 μL of 1 mM HEPES pH 7.5 and allowed the conjugation reaction to proceed for 30 minutes. We stopped the reaction by adding 1 μL of beta-mercaptoethanol. Samples were analyzed for cross-linking by SDS-PAGE.
We coated the wells of a Linbro titertek polystyrene 96-well flat bottom plate (Flow Laboratories, Maclean, Va.; catalog #76-231-05) with 100 μL of the above-described BSA-CS1 solution diluted to 1 μg/mL in 0.05 M NaHCO3 (15 mM NaHCO3, 35 mM Na2CO3) pH 9.2. Some wells were not coated with CS1 in order to assess non-specific cell binding (NSB). The plate was then incubated overnight at 4° C.
Following this incubation, the contents of the wells were removed by inverting and blotting the plate. All of the wells were then blocked with 100 μL of 1% BSA in PBS, 0.02% NaN3, for a minimum of one hour at room temperature.
Ramos cells are grown, maintained and labelled in RPMI 1640 culture medium containing 1% BSA. Just prior to running the assay, we added 2′,7′-bis-(2-carboxyethyl)-5 (and -6) carboxyfluorescein acetoxymethyl ester (“BCECF-AM”; Molecular Probes Inc., Eugene, Oreg.; catalog #B-1150) to a final concentration of 2 μM to a culture of Ramos cells (4×10^6 cells/mL). We incubated the cells for 20 minutes at 37° C.
Following labelling, the cells were washed twice in assay buffer (24 mM TRIS, 137 mM NaCl, 2.7 mM KCl, pH 7.4, containing 0.1% BSA and 2 mM glucose) to remove any cations originating from the culture medium. The cells were then resuspended in assay buffer to 4×10^6 cells/mL and 2 mM MnCl2 was added to upregulate VLA4 on the surface of the cells.
Immediately prior to running the assay, we removed the BSA blocking solution from the 96-well plates and washed the wells with 100 μL of assay buffer. We then added to each well 25 μL of test cell adhesion inhibitory compound at 2× the final concentration and 25 μL of the labelled Ramos cells. […] Each concentration of compound was tested in triplicate. The compound and cells are allowed to incubate for 30 minutes at room temperature.

Row | Structure (SMILES) | IC50 [nM]
1 | COC(=O)C[C@H](NC(=O)[C@H](CC(C)C)N(C)CCCc1ccccc1)C(=O)N[C@H](C(=O)OC)C(C)C [Compound 112] | > 10000
2 | Cc1ccccc1NC(=O)Nc1ccc(CC(=O)N[C@@H](CC(C)C)C(=O)N[C@@H](CC(=O)O)C(=O)N[C@@H](CCC(=O)O)C(N)=O)cc1 [Compound 234] | < 50
3 | Cc1ccccc1NC(=O)Nc1ccc(CC(=O)N2CCC[C@H]2C(=O)N[C@@H](CC(=O)O)C(=O)N[C@H](CC(C)C)C(N)=O)cc1 [Compound 244] | < 50
4 | CC(C)C[C@H](NC(=O)[C@H](CC(=O)O)NC(=O)[C@H](CC(C)C)NC(=O)C1Cc2ccccc2CN1)C(=O)O (some centres unmarked) [Compound 90] (H-[ξTic]LDL-OH) | > 10000
5 | CC(C)C(NC(=O)C(CC(=O)O)NC(=O)C(CC1CCCCC1)NC(=O)c1cc2ccccc2cn1)C(=O)O (centres unmarked) [Compound 85] | > 10000
6 | CNC(=O)C(NC(=O)C(CC(=O)O)NC(=O)C(Cc1ccc(O)cc1)NC(=O)Cc1ccccc1)C(C)C (stereo not drawn) [Compound 129] (PhAc-Tyr-Asp-Val-NHMe; configuration not given here) | > 10000
7 | CC(C)C[C@H](NC(=O)Cc1ccc(NC(=O)Nc2ccccc2)cc1)C(=O)N[C@@H](CC(=O)O)C(=O)N[C@@H](C(=O)N1CCC[C@H]1C(N)=O)C(C)C [Compound 211] ({NHPh-CO}-[X1]LD[dV]P-NH2) | 50 to 10000
8 | COc1cc(CC(=O)NC(CCSC)C(=O)NC(CC(=O)O)C(=O)NC(C(=O)N2CCCC2C(=O)O)C(C)C)ccc1NC(=O)Nc1ccccc1 (centres unmarked) [Compound 2] ({NHPh-CO}-[X5]MDVP-OH; configuration not given here) | < 50
9 | Cc1ccccc1NC(=O)Nc1ccc(CC(=O)N2CCC[C@H]2C(=O)N[C@@H](CC(=O)O)C(=O)N[C@@H](Cc2c[nH]c3ccccc23)C(N)=O)cc1 [Compound 250] | < 50
10 | CCCCC(NC(=O)C(NC(=O)C(CC(=O)O)NC(=O)C(CC(C)C)NC(=O)Cc1ccccc1)C(C)C)C(=O)O (centres unmarked) [Compound 43] (PhAc-LDV[Nle]-OH; configuration not given here) | 50 to 10000
11 | CSCC[C@H](NC(=O)Cc1ccc(NC(=O)Nc2ccccc2C)cc1)C(=O)N[C@@H](CC(=O)O)C(=O)N[C@@H](CC(=O)O)C(N)=O [Compound 219] | < 50
12 | Cc1ccccc1NC(=O)Nc1ccc(CC(=O)N[C@H](C(=O)N[C@@H](CC(=O)O)C(=O)N[C@@H](CC(C)C)C(N)=O)[C@@H](C)O)cc1 [Compound 253] | < 50
13 | CSCC[C@H](NC(=O)[C@H](CC(=O)O)NC(=O)[C@H](CC(C)C)NC(=O)Cc1ccc(NC(=O)Nc2ccccc2C)cc1)C(N)=O [Compound 236] | < 50
14 | CSCC[C@H](NC(=O)Cc1ccc(NC(=O)Nc2ccccc2C)cc1)C(=O)N[C@@H](CC(=O)O)C(=O)N[C@H](CO)C(N)=O [Compound 229] | < 50
15 | CC(C)C[C@H](NC(=O)Cc1ccc(NC(=O)Nc2ccccc2)cc1)C(=O)N[C@H](CC(=O)O)C(=O)N[C@H](C(=O)N1CCC[C@H]1C(N)=O)C(C)C [Compound 210] ({NHPh-CO}-[X1]L[dD]VP-NH2) | 50 to 10000
16 | Cc1ccccc1NC(=O)Nc1ccc(CC(=O)NC(CC(C)C)C(=O)NC(CC(=O)O)C(=O)NC(C(=O)O)c2ccccc2)cc1 (centres unmarked) [Compound 207] | 50 to 10000
17 | Cc1ccccc1NC(=O)Nc1ccc(CC(=O)N[C@@H](CC(C)C)C(=O)N[C@@H](CC(=O)O)C(=O)N[C@@H](Cc2c[nH]c3ccccc23)C(N)=O)cc1 [Compound 239] | < 50
18 | Cc1ccccc1NC(=O)Nc1ccc(CC(=O)N[C@H](C(=O)N[C@@H](CC(=O)O)C(=O)N[C@H](CC(C)C)C(N)=O)[C@@H](C)O)cc1 [Compound 255] | < 50
19 | CC(C)C[C@H](NC(=O)CCCCc1ccccc1)C(=O)N[C@@H](CC(=O)O)C(=O)N[C@H](C(=O)O)C(C)C [Compound 98] | > 10000
20 | Cc1ccccc1NC(=O)Nc1ccc(CC(=O)N2CCC[C@H]2C(=O)N[C@@H](CC(=O)O)C(=O)N[C@@H](CC(=O)O)C(N)=O)cc1 [Compound 241] | < 50
21 | Cc1ccccc1NC(=O)Nc1ccc(CC(=O)N[C@@H](CC(C)C)C(=O)N[C@@H](CC(=O)O)C(=O)N[C@H](CC(N)=O)C(N)=O)cc1 [Compound 237] | < 50

Results, then the molecule that gave them:

Row | IC50 [nM] | Structure (SMILES)
22 | > 10000 | CC(C)C[C@H](NC(=O)CC1CC2CCC1C2)C(=O)N[C@@H](CC(=O)O)C(=O)N[C@H](C(=O)O)C(C)C (some centres unmarked) [Compound 390]
23 | > 10000 | CC[C@H](C)[C@H](NC(=O)[C@@H](CC(=O)O)NC(=O)[C@H](N)C(C)C)C(=O)NCc1ccc(NC(=O)Nc2ccccc2C)cc1 [Compound 344]
24 | < 50 | Cc1ccccc1NC(=O)Nc1ccc(CC(=O)N[C@@H](CC(C)C)C(=O)N[C@@H](CC(=O)O)C(=O)N[C@H](C(=O)N2CCC[C@H]2C(=O)N[C@@H](CO)C(=O)O)C(C)C)cc1 [Compound 337] ({NH(2-Me-phenyl)-CO}-[X1]LDVPS-OH)
25 | < 50 | Cc1ccccc1NC(=O)Nc1ccc(CC(=O)N2CCC[C@H]2C(=O)N[C@@H](CC(=O)O)C(=O)N[C@H](CC(C)C)C(=O)O)cc1 [Compound 411]
26 | < 50 | Cc1ccccc1NC(=O)Nc1ccc(CC(=O)N[C@@H](CO)C(=O)N[C@@H](CC(=O)O)C(=O)N[C@H](CC(N)=O)C(N)=O)cc1 [Compound 282]
27 | < 50 | Cc1ccccc1NC(=O)Nc1ccc(CC(=O)N[C@@H](CS)C(=O)N[C@@H](CC(=O)O)C(=O)N[C@H](C(N)=O)C(C)C)cc1 [Compound 274]
28 | > 10000 | Cc1ccccc1NC(=O)Nc1ccc(CC(=O)NC(CC(C)C)C(=O)N2CN(Cc3ccc4c(c3)OCO4)C(=O)C[C@H]2C(=O)O)cc1 (mixture of isomers) [Compound 363]
29 | < 50 | CSCC[C@H](NC(=O)[C@H](CC(=O)O)NC(=O)[C@H](CCC(N)=O)NC(=O)Cc1ccc(NC(=O)Nc2ccccc2C)cc1)C(N)=O [Compound 303]
30 | < 50 | Cc1ccccc1NC(=O)Nc1ccc(CC(=O)N[C@@H](CCC(=O)O)C(=O)N[C@@H](CC(=O)O)C(=O)N[C@@H](CCC(=O)O)C(N)=O)cc1 [Compound 267]
31 | < 50 | Cc1ccccc1NC(=O)Nc1ccc(CC(=O)N[C@H](CC(C)C)C(=O)N[C@@H](CC(=O)O)C(=O)N[C@@H](Cc2c[nH]c3ccccc23)C(N)=O)cc1 [Compound 295]
32 | > 10000 | CC(C)C[C@H](NC(=O)C1COc2ccc(Cl)cc2C1)C(=O)N[C@@H](CC(=O)O)C(=O)N[C@H](C(=O)O)C(C)C (some centres unmarked) [Compound 386]
33 | > 10000 | CC(C)C[C@H](NC(=O)c1ccc2c(c1)OCO2)C(=O)N[C@@H](CC(=O)O)C(=O)N[C@H](C(=O)O)C(C)C [Compound 406]
34 | > 10000 | COC(=O)[C@@H](NC(=O)[C@H](CC(=O)O)N1CCC(NC(=O)CCc2ccc(O)cc2)C1=O)C(C)C (some centres unmarked) [Compound 335]
35 | < 50 | Cc1ccccc1NC(=O)Nc1ccc(CC(=O)N[C@@H](CC(C)C)C(=O)N[C@@H](CCC(=O)O)C(=O)N[C@@H](CC(=O)O)C(N)=O)cc1 [Compound 310]
36 | < 50 | Cc1ccccc1NC(=O)Nc1ccc(CC(=O)N[C@H](C(=O)N[C@@H](CC(=O)O)C(=O)N[C@H](C(N)=O)[C@@H](C)O)[C@@H](C)O)cc1 [Compound 257]
37 | > 10000 | Cc1ccccc1NC(=O)Nc1ccc(CC(=O)N[C@@H](CC(C)C)C(=O)N2CCC[C@H]2C(=O)N[C@H](C(=O)N[C@@H](CC(=O)O)C(=O)O)C(C)C)cc1 [Compound 341] ({NH(2-Me-phenyl)-CO}-[X1]LPVD-OH)
38 | < 50 | Cc1ccccc1NC(=O)Nc1ccc(CC(=O)N[C@@H](CO)C(=O)N[C@@H](CC(=O)O)C(=O)N[C@H](CO)C(N)=O)cc1 [Compound 285]
